Literature values, collected in paper PMC11125333, “Self-Immolative Domino Dendrimers as Anticancer-Drug Delivery Systems: A Review” (Pharmaceutics, 2024).

Parameters: method as in PMID 25924099
Conditions: UV irradiation at 365 nm

## CC[C@@]1(O)C(=O)OCc2c1cc1n(c2=O)Cc2cc3ccccc3nc2-1 [CAMP, camptothecin]
  effect of UV irradiation on cytotoxicity / cell-killing efficacy: did not increase
